Bounds are passed on as bounds.

For the first test, the target named is GST-tagged-Wee1 kinase (Homo sapiens, UniProt P30291). The experiment in a line: Wee1 time-resolved fluorescence equilibrium binding assay (displacement of Oregon Green-labeled ATP-competitive kinase probe).
GST-tagged-Wee1 kinase, sequence (P30291 whole entry): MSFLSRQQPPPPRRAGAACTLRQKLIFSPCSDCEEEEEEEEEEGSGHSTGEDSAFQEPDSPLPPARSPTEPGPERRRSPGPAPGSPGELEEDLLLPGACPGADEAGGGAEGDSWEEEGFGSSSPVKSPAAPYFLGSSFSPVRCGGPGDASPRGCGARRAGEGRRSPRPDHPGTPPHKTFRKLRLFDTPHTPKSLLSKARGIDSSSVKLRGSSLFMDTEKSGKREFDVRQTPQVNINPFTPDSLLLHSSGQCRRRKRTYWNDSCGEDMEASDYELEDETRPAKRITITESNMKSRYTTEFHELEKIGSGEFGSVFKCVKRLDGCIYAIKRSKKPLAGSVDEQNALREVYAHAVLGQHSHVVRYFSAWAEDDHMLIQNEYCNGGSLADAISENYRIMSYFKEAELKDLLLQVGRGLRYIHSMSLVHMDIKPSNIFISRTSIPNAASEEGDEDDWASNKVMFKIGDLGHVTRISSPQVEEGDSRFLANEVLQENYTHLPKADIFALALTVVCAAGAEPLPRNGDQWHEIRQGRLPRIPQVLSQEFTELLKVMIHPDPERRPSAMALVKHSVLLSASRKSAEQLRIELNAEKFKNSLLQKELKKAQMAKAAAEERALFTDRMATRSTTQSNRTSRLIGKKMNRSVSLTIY
Details: not given
The procedure: Wee1 kinase was assayed using a time-resolved fluorescence equilibrium binding assay monitoring displacement of a rapidly reversible Oregon Green-labeled ATP-competitive kinase probe (N-(2-(2-(2-(4-(4-(5-chloro-4-(2-(1-hydroxycyclobutyl)thiazol-5-yl)-1H-pyrrolo[2,3-b]pyridin-2-yl)phenyl)piperazin-1-yl)ethoxy)ethoxy)ethyl)-2′,7′-difluoro-3′,6′-dihydroxy-3-oxo-3H-spiro[isobenzofuran-1,9′-xanthene]-5-carboxamide) by competitive Wee1 inhibitors.
Take `CN1CCN(c2ccc(Nc3ncc4c(=O)n(-c5c(Cl)cccc5Cl)nc(-c5cccc(-c6c[nH]cn6)c5)c4n3)cc2)CC1` [Example 91, 6-(2,6-dichlorophenyl)-8-[3-(1H-imidazol-4-yl)phenyl]-2-{[4-(4-methylpiperazin-1-yl)phenyl]amino}pyrimido[4,5-d]pyridazin-5(6H)-one]: the Ki was found to be 0.3 nM.
Turning to `CN1CCN(c2ccc(Nc3ncc4c(=O)n(-c5ccccc5Cl)nc(-c5ccccc5F)c4n3)cc2)CC1` [Example 40, 6-(2-chlorophenyl)-8-(2-fluorophenyl)-2-{[4-(4-methylpiperazin-1-yl)phenyl]amino}pyrimido[4,5-d]pyridazin-5(6H)-one], the affinity, expressed as Ki, was 1 nM.
As to `Cc1ccccc1-n1nc(-c2ccco2)c2nc(Nc3ccc4c(c3)CN(C)CC4)ncc2c1=O` [Example 233, 8-(furan-2-yl)-6-(2-methylphenyl)-2-[(2-methyl-1,2,3,4-tetrahydroisoquinolin-7-yl)amino]pyrimido[4,5-d]pyridazin-5(6H)-one], the Ki is 0.3 nM.
In turn, `CN1CCCC(n2nc(-c3ccccn3)c3nc(Nc4ccc5c(c4)CNCC5(C)C)ncc3c2=O)C1` (centres unmarked) [Example 332, 2-[(4,4-dimethyl-1,2,3,4-tetrahydroisoquinolin-7-yl)amino]-6-(1-methylpiperidin-3-yl)-8-(pyridin-2-yl)pyrimido[4,5-d]pyridazin-5(6H)-one] gave an inhibition constant (Ki) of 490 nM.
For `CN(C)Cc1cccc(-c2nn(-c3c(Cl)cccc3Cl)c(=O)c3cnc(Nc4ccc(N5CCN(C)CC5)cc4)nc23)c1` [Example 184, 6-(2,6-dichlorophenyl)-8-{3-[(dimethylamino)methyl]phenyl}-2-{[4-(4-methylpiperazin-1-yl)phenyl]amino}pyrimido[4,5-d]pyridazin-5(6H)-one], the Ki was 0.03 nM.
In turn, `Cc1nn(-c2c(Cl)cccc2Cl)c(=O)c2cnc(Nc3cccc(C(=O)NC4CCC(N(C)C)CC4)c3)nc12` (centres unmarked) [Example 520, 3-{[6-(2,6-dichlorophenyl)-8-methyl-5-oxo-5,6-dihydropyrimido[4,5-d]pyridazin-2-yl]amino}-N-[4-(dimethylamino)cyclohexyl]benzamide] had a Ki of 0.45 nM.
In the case of `Cc1nn(-c2c(Cl)cccc2Cl)c(=O)c2cnc(Nc3ccc(NC4CCNCC4)cc3)nc12` [Example 525, 6-(2,6-dichlorophenyl)-8-methyl-2-{[4-(piperidin-4-ylamino)phenyl]amino}pyrimido[4,5-d]pyridazin-5(6H)-one], the Ki is 0.2 nM.
Regarding `Cc1cc(Nc2ncc3c(=O)n(-c4ccccc4C)nc(-c4cccs4)c3n2)ccc1N1CCCN(C(C)C)CC1` [Example 120, 2-{[4-(4-isopropyl-1,4-diazepan-1-yl)-3-methylphenyl]amino}-6-(2-methylphenyl)-8-(2-thienyl)pyrimido[4,5-d]pyridazin-5(6H)-one], the Ki worked out at 1 nM.
The same measure, in the same setting: in the case of `CCc1nn(-c2c(Cl)cccc2Cl)c(=O)c2cnc(Nc3ccc(CN4CCN(C)CC4)cc3)nc12` [Example 465, 6-(2,6-dichlorophenyl)-8-ethyl-2-({4-[(4-methylpiperazin-1-yl)methyl]phenyl}amino)pyrimido[4,5-d]pyridazin-5(6H)-one] it was 0.88 nM.
For `Cc1nn(-c2c(Cl)cncc2Cl)c(=O)c2cnc(Nc3ccc4c(c3)CN(C)CC43CC3)nc12` [Example 487, 6-(3,5-dichloropyridin-4-yl)-8-methyl-2-[(2′-methyl-2′,3′-dihydro-1′H-spiro[cyclopropane-1,4′-isoquinolin]-7′-yl)amino]pyrimido[4,5-d]pyridazin-5(6H)-one], the affinity, expressed as Ki, was 0.27 nM.
Take `O=c1c2cnc(Nc3ccc(N4CCNCC4)cc3)nc2c(-c2ccccn2)nn1-c1cccc2ccccc12` [Example 286, 6-(naphthalen-1-yl)-2-{[4-(piperazin-1-yl)phenyl]amino}-8-(pyridin-2-yl)pyrimido[4,5-d]pyridazin-5(6H)-one]: the inhibitory constant (Ki) stood at 9.4 nM.
With `Cc1nn(-c2c(Cl)cccc2Cl)c(=O)c2cnc(Nc3ccc(N4CC5CNCC5C4)cc3)nc12` (centres unmarked) [Example 446, 6-(2,6-dichlorophenyl)-2-{[4-(hexahydropyrrolo[3,4-c]pyrrol-2(1H)-yl)phenyl]amino}-8-methylpyrimido[4,5-d]pyridazin-5(6H)-one], the affinity corresponds to a Ki of 0.27 nM.
In turn, `CN1Cc2cc(Nc3ncc4c(=O)n(CCO)nc(-c5ccccn5)c4n3)ccc2C(C)(C)C1` [Example 242, 6-(2-hydroxyethyl)-8-(pyridin-2-yl)-2-[(2,4,4-trimethyl-1,2,3,4-tetrahydroisoquinolin-7-yl)amino]pyrimido[4,5-d]pyridazin-5(6H)-one] displayed a Ki of 50 nM.
Compound `CN1CCN(c2ccc(Nc3ncc4c(=O)n(-c5c(Cl)cccc5Cl)nc(-c5cccc(O)n5)c4n3)cc2)CC1` [Example 88, 6-(2,6-dichlorophenyl)-8-(6-hydroxypyridin-2-yl)-2-{[4-(4-methylpiperazin-1-yl)phenyl]amino}pyrimido[4,5-d]pyridazin-5(6H)-one] showed a Ki of 5 nM.
`CN1CCN(c2ccc(Nc3ncc4c(=O)n(-c5ccccc5Cl)nc(CCc5ccccc5)c4n3)cc2)CC1` [Example 24, 6-(2-chlorophenyl)-2-{[4-(4-methylpiperazin-1-yl)phenyl]amino}-8-(2-phenylethyl)pyrimido[4,5-d]pyridazin-5(6H)-one] yielded a Ki of 2 nM.
Same read-out and setting: under `Cc1ccccc1-n1nc(C2CCCC2)c2nc(Nc3ccc(N4CCN(C)CC4)cc3)ncc2c1=O` [Example 49, 8-cyclopentyl-6-(2-methylphenyl)-2-{[4-(4-methylpiperazin-1-yl)phenyl]amino}pyrimido[4,5-d]pyridazin-5(6H)-one] stands 9 nM.
Take `Cc1nn(-c2ccccc2Cl)c(=O)c2cnc(Nc3ccc4c(c3)CN(C)CC4(C)C)nc12` [Example 483, 6-(2-chlorophenyl)-8-methyl-2-[(2,4,4-trimethyl-1,2,3,4-tetrahydroisoquinolin-7-yl)amino]pyrimido[4,5-d]pyridazin-5(6H)-one]: the inhibition constant (Ki) is 0.55 nM.
The same measure, in the same setting: under `CC(C)n1cc(-c2nn(-c3c(F)cccc3Cl)c(=O)c3cnc(Nc4ccc5c(c4)CNCC54CC4)nc23)cn1` [Example 335, 6-(2-chloro-6-fluorophenyl)-2-(2′,3′-dihydro-1′H-spiro[cyclopropane-1,4′-isoquinolin]-7′-ylamino)-8-[1-(propan-2-yl)-1H-pyrazol-4-yl]pyrimido[4,5-d]pyridazin-5(6H)-one] stands 0.21 nM; under `CN1CCN(c2ccc(Nc3ncc4c(=O)n(-c5c(Cl)cccc5Cl)nc(-c5ccsc5)c4n3)cc2)CC1` [Example 97, 6-(2,6-dichlorophenyl)-2-{[4-(4-methylpiperazin-1-yl)phenyl]amino}-8-(3-thienyl)pyrimido[4,5-d]pyridazin-5(6H)-one], 0.06 nM; under `CCc1nn(-c2c(Cl)cccc2Cl)c(=O)c2cnc(Nc3ccc4c(c3)C(C)(C)NCC4)nc12` [Example 463, 6-(2,6-dichlorophenyl)-2-[(1,1-dimethyl-1,2,3,4-tetrahydroisoquinolin-7-yl)amino]-8-ethylpyrimido[4,5-d]pyridazin-5(6H)-one], 0.55 nM.
For `CN1CCN(c2ccc(Nc3ncc4c(=O)n(-c5c(Cl)cccc5Cl)nc(-c5ccnc(C(=O)N(C)C)c5)c4n3)cc2)CC1` [Example 248, 4-[6-(2,6-dichlorophenyl)-2-{[4-(4-methylpiperazin-1-yl)phenyl]amino}-5-oxo-5,6-dihydropyrimido[4,5-d]pyridazin-8-yl]-N,N-dimethylpyridine-2-carboxamide], the affinity, expressed as Ki, was 0.4 nM.
On the same count and under the same terms, in the case of `C=CCn1nc(-c2cccs2)c2nc(Nc3ccc(S(=O)(=O)N4CCOCC4)cc3)ncc2c1=O` [Example 125, 6-allyl-2-{[4-(morpholin-4-ylsulfonyl)phenyl]amino}-8-(2-thienyl)pyrimido[4,5-d]pyridazin-5(6H)-one] it was more than 3140 nM; in that of `CC(C)n1nc(-c2ccccn2)c2nc(Nc3ccc(N4CCN(C)CC4)cc3)ncc2c1=O` [Example 272, 2-{[4-(4-methylpiperazin-1-yl)phenyl]amino}-6-(propan-2-yl)-8-(pyridin-2-yl)pyrimido[4,5-d]pyridazin-5(6H)-one], 100 nM.
`O=c1c2cnc(Nc3ccc4c(c3)CNCC4)nc2c(C(F)(F)F)nn1-c1c(Cl)cccc1Cl` [Example 421, 6-(2,6-dichlorophenyl)-2-(1,2,3,4-tetrahydroisoquinolin-7-ylamino)-8-(trifluoromethyl)pyrimido[4,5-d]pyridazin-5(6H)-one] returned a Ki of 0.5 nM.
The compound `CC1(C)CNCc2cc(Nc3ncc4c(=O)n(C5CCNCC5)nc(-c5ccccn5)c4n3)ccc21` [Example 305, 2-[(4,4-dimethyl-1,2,3,4-tetrahydroisoquinolin-7-yl)amino]-6-(piperidin-4-yl)-8-(pyridin-2-yl)pyrimido[4,5-d]pyridazin-5(6H)-one] had a Ki of 840 nM.
On to `Cc1cccc(Cl)c1-n1nc(C)c2nc(Nc3ccc4c(c3)CN(C)CC4(C)C)ncc2c1=O` [Example 498, 6-(2-chloro-6-methylphenyl)-8-methyl-2-[(2,4,4-trimethyl-1,2,3,4-tetrahydroisoquinolin-7-yl)amino]pyrimido[4,5-d]pyridazin-5(6H)-one], for which the affinity corresponds to a Ki of 0.23 nM.
Same read-out and setting: under `Cc1ccccc1-n1nc(-c2cccs2)c2nc(Nc3ccc4c(c3)CN(C)CC43CC3)ncc2c1=O` [Example 130, 2-[(2′-methyl-2′,3′-dihydro-1′H-spiro[cyclopropane-1,4′-isoquinolin]-7′-yl)amino]-6-(2-methylphenyl)-8-(2-thienyl)pyrimido[4,5-d]pyridazin-5(6H)-one] stands 0.4 nM.

The test is the same for the next values; noted with them: read-out: Wee-1 inhibition Ki.
For the compound “6-(2,6-dichlorophenyl)-8-(3-furyl)-2-{[4-(4-methylpiperazin-1-yl)phenyl]amino}pyrimido[4,5-d]pyridazin-5(6H)-one [Example 95]”, the Ki was 0.1 nM.
Take “6-(2-chlorophenyl)-2-{[4-(4-isopropylpiperazin-1-yl)-3-methylphenyl]amino}-8-(2-thienyl)pyrimido[4,5-d]pyridazin-5(6H)-one [Example 166]”: the Ki is 0.8 nM.

For orientation: Ki means a measure of affinity in units of concentration, obtained from inhibition or displacement.

The record behind these values is patent publication US8796289B2 (AbbVie Inc., priority 2011, dated 2014).
